Reference: patent US9682151B2, “Peptides whose uptake in cells is controllable” (The Regents of the University of California, priority 2009, dated 2017)
Where two headings read alike, the source gives them in different places.

Columns and labels:
[1] = mouse, in vivo
Experimental: Peptides conjugated to 5 kD PEG and 12 kD PEG were injected into nude mice bearing HT-1080 xenografts at a dose of 6 nmoles per animal (FIG. 24). […] As controls, a scrambled version of the PLGLAG (SEQ ID NO: 1) cleavable sequence denoted as LALGPG (SEQ ID NO: 48) and a d-amino acid version of the PLGLAG (SEQ ID NO: 1) sequence denoted as plglag were also injected. […] Because of what was what was available at the time, the polyoma transgenic mice were tested in wildtype and iNOS−/− backgrounds.
As the last molecule in the large molecular weight carrier series, 1725 was a fifth generation PAMAM dendrimer conjugated to two MMP cleavable selective transport molecules. The remaining 126 attachment sites were capped with succinyl groups. […] This molecule was injected into both HT-1080 tumor bearing nude transgenic PyMT mice at varying concentrations.

HT1080 tumor = assay: Doxorubicin conjugated dendrimers in HT1080 tumor bearing mice; assay type: in vivo; settings: single dose
Experimental: In multiple experiments, HT1080 bearing nude mice were injected with a single specific dose of doxorubicin dendrimer. […] Mouse weights and tumor volumes were measured regularly. For the urea and the Peg hydrazone dendrimers, mice were imaged spectrally 7 days after injection. Using the Maestro (CRI) spectral deconvolution system and software, doxorubicin fluorescence (red) was separated out from autofluorescence (green). Tumors were removed and imaged by spectral deconvolution and brightfield. For aromatic and thioether dendrimers there were 4 mice for each treatment group but only 2 mice for the urea and Peg hydrazone dendrimers because of limited dendrimer synthesis yields.

[2] = test system: HT1080 human fibrosarcoma; settings: for toxicity: 44 μmol/kg
Experimental: A selective transport molecule-Podophyllotoxin (selective transport molecule-podo) conjugate by reacting podo-ss-pyridine with Suc-e8-xPLGLAG-r9-c, purified by HPLC and confirmed by mass spectrometry. The peptide was stored as a TFA salt and the yield was determined by mass. For animal experiments, athymic nude mice were injected with 1×0^6HT1080 human fibrosarcoma cells in the mammary fat pad. After one week when tumors were 30-50 mm^3 mice were injected IP once every other day for a total of three times with 10 μmol/kg of either podophyllotoxin, selective transport molecule alone, or selective transport molecule-podo.
(§1) Therefore we synthesized Suc-e8-xPLGLAG-r9-c(ss-podophyllotoxin) to test in cell culture. […] In order to decide upon a starting dose, we tested podophyllotoxin by itself to determine the effective dose for shrinking tumors.
Three mice in each treatment group were injected with 3 doses, one dose every other day.

[3] = test system: HT1080 human fibrosarcoma; settings: 48-100 μmol/kg after multiple doses; cited from earlier work
4T1.2 tumor = assay: Plasma pre-reaction of maleimide peptide, blood levels and tumor fluorescence; assay type: in vivo, mice; settings: 48 hours
Experimental: (§2) Nude mice were injected with 2×^06HT1080 human fibrosarcoma cells in the left #2 mammary fat pad. Experiments were performed 5-7 days post injection. Polyoma Middle T mice (PyMT) were provided by Lesley Ellies and they were injected with peptide IV between 9-12 wks of age when medium to large sized tumors were present in each mammary fat pad. One million mouse mammary adenocarcinoma 4T1.2 cells (from Robyn Anderson, University of Melbourne) were injected into the left mammary fat pad of nude mice (FIGS. 4 and 7) and Balb/c mice (FIGS. 8 and 9) and 5-20 days later were injected with peptide and imaged.
(§3) When tumors were of sufficient size 5-20 days after injection of tumor cells the peptide was injected IV and imaged on the Maestro small animal imager (CRI). Animals were sacrificed by overdose with Isoflurane and dissected. To examine lung metastases, the lungs were inflated with OCT cryoprotectant and imaged on the small animal imager. Blood measurements were taken by bleeding the tail vein at a specified time point and collected in a capillary tube. The tubes were then imaged for presence of the Cy5 fluorescent peptide using the small animal imager. For processing of tissues for gels, 30 mg of tissue was homogenized in a 1% SDS Tris buffer then heated at 80° C. for 10 min and centrifuged. The supernatant was then diluted 1:10 and run on a tricine gel and imaged by fluorescence. […]

[4] = test system: HT-1080 tumor bearing nude / transgenic PyMT mice; settings: mouse, in vivo
Experimental: Animals expressing the polyoma middle T transgene (PyMT) driven by the MMTV promoter were obtained from Lesley Ellies. Nude animals bearing HT-1080 xenografts were either generated in house or were obtained from Explora Biosciences. Either way, tumors were used once they reached a diameter of […]. Animals were anesthetized with ketamine/midazolam (80 mg/kg, 40 mg/kg) and injected with the indicated construct through the tail vein Animals were typically observed throughout the first hour as they woke up from anesthesia. They were re-anesthetized and imaged at six hours, 12 hours, 24 hours and 48 hours as needed. After the last imaging session, animals were sacrificed by overdose of halothane. The imaging system used evolved over time. For most of the PEGylated conjugates, a simple light box was used, though the image shown is one of the first taken with the Maestro spectral deconvolution imager. The albumin, dextran and PAMAM dendrimer conjugates were tested using a 620/20 excitation filter and collecting images at 680 nm. The streptavidin conjugates were tested using a 640/48 excitation filter, with images collected at 700 nm.
Standardized Uptake Values were initially measured without tissue specific calibrations and were later re-adjusted to take tissue specificity and a light source change into account. […]

[5] = test system: HT1080 human fibrosarcoma; assay: Optical imaging of albumin reactive peptides in HT1080 tumor bearing mice; assay type: in vivo; settings: 3 nmols IV, 24 hours
Experimental: as §2, §3

cells = assay: Toxicity of podophyllotoxin conjugate in cell culture; assay type: cell-based
From the text: as §1

recombinant MMP-9 = target: T1, recombinant MMP-9 (Homo sapiens, UniProt P14780); assay: Enzyme cleavage assay of albumin reacted maleimide peptide; assay type: biochemical; settings: 50 nM MMP-9
T1 construct: purchased EMD Biosciences
T1 sequence (P14780 94-707, species assumed): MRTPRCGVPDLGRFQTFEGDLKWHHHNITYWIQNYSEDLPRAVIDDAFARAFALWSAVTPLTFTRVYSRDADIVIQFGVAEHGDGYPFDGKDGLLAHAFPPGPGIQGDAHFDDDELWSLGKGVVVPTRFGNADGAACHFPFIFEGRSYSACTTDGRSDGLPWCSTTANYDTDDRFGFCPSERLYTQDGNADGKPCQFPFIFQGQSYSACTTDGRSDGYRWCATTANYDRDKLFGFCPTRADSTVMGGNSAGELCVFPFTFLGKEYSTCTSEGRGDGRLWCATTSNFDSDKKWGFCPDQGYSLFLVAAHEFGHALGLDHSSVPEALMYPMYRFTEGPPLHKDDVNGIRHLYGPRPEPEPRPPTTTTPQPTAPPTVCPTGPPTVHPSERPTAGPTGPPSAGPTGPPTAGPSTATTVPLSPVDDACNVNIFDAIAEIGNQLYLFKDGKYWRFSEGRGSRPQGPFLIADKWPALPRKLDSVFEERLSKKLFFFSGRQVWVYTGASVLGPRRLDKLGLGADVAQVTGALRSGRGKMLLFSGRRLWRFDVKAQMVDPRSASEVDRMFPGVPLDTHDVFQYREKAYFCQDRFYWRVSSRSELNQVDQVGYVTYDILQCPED
Experimental: (§4) Maleimide peptides were initially reacted with mouse serum albumin (Sigma) at 40 mg/mL or fresh frozen mouse plasma for one hour. Samples were run on a tricine buffered 10-20% polyacrylamide gel and imaged for Cy5 fluorescence on a UVP gel imager. For the enzyme cleavage assay, Cy5-monomaleimide and the cleavable maleimide peptides were reacted as 2 nmol with mouse serum albumin at 40 mg/mL in 25 mM hepes buffer. The stock was then diluted 1:[…] with 50 nM of recombinant MMP-9 (EMD Biosciences) and digested for 20 minutes and 4 hours then run on a tricine gel and imaged by Cy5.
(§5) Malemide selective transport molecule was reacted mouse serum albumin and plasma in aqueous conditions to determine that peptide reacts with albumin in a test tube. […] Plasma seemed to give somewhat more complete reaction.

mouse serum albumin = target: T2, mouse serum albumin (Mus musculus, UniProt P07724); assay: Reaction of maleimide peptide with albumin; settings: within an hour of mixing, PAGE
T2 construct: Albumin reactive selective transport molecules create a robust reaction with native albumin; purchased Sigma
T2 sequence (P07724 25-608): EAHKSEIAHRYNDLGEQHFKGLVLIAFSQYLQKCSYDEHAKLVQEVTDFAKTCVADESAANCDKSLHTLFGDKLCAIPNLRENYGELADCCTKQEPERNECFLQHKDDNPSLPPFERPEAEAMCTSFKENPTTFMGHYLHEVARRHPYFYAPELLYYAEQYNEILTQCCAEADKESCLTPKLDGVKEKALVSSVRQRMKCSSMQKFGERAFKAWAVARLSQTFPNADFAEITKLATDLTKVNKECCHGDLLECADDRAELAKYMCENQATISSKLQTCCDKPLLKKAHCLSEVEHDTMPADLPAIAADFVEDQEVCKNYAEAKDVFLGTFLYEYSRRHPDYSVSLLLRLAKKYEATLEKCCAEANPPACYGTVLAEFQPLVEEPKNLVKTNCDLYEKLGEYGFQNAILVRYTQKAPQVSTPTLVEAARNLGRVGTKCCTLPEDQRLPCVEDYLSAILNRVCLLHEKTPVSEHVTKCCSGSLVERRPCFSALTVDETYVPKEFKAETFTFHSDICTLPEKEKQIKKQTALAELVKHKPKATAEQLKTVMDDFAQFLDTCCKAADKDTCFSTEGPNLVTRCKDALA
Experimental: as §4, §5

[6] = 10 μmol/kg IP, 3 doses, one every other day

Compound: 12kD-PEG-e9-XPLGLAG-r9-k(cy5)
- Approx Plasma Halflife [1]: ~20 m
- blood halflife [1]: approximately 20 minutes

Compound: COc1cccc2c1C(=O)c1c(O)c3c(c(O)c1C2=O)C[C@@](O)(C(=O)CO)C[C@@H]3O[C@H]1C[C@H](N)[C@H](O)[C@H](C)O1 [doxorubicin]
- anti-tumor activity (qualitative) (HT1080 tumor): continually beat the dendrimers in anti-tumor activity

Compound: COc1cc([C@@H]2c3cc4c(cc3[C@H](O)[C@H]3COC(=O)[C@H]23)OCO4)cc(OC)c1OC [podophyllotoxin, reference compound]
- effect on tumor growth [2, 6]: not efficacious
- effect on tumor growth ([2]; 10 μmol/kg IP, 3 doses, one every other day, listed as Podo): no therapeutic activity or toxicity
- toxicity [2]: no obvious signs of toxicity
- effect on tumor growth ([2]; 3 injections at 44 μmol/kg every other day): sufficient to significantly slow tumor growth but not provide a cure
- toxicity (literature) [3]: minimal toxicity

Compound: Cy5-monomaleimide
- tumor fluorescence / uptake (4T1.2 tumor): significantly less fluorescence

Compound: G5-PAMAM-[e9-XPLGLAX-r9-k(cy5)]2[PEG]126
- Approx Plasma Halflife [1]: ~20 h
- blood halflife [1]: over 10 hours

Compound: G5PAMAM-[e9-OPLG(MeC)AG-r9-k(cy5)][PEG]127]
- liver uptake relative to PLGLAX dendrimer [4]: decrease by a factor of two

Compound: G5PAMAM-[e9-XPLGLAG-r9-k(cy5)][PEG]127 [G5PAMAM-[e9-XPLGLAG-r9-k(cy5)] [PEG]127]
- tumor uptake relative to PLGLAX dendrimer [4]: decreased tumor uptake

Compound: Generation 5 PAMAM-(e9-XPLGLAX-r9-k(cy5))2(succ)126
- blood halflife, first phase (biphasic) [1]: under 10 minutes
- blood halflife, second phase (biphasic) [1]: 10 to 15 h

Compound: Streptavidin-[e9-XPLGLAG-r9-k(cy5)]4
- Approx Plasma Halflife [1]: ~4 h

Compound: Suc-e8-xPLGLAG-r9-c(Cy5)
- tumor uptake (Cy5 fluorescence) [5]: difficult to detect

Compound: Suc-e8-xPLGLAG-r9-c(ss-podophyllotoxin) [selective transport molecule-podo]
- body weight ([2]; 10 μmol/kg IP, 3 doses): lost significant weight
- effect on tumor growth [2, 6]: modest slowing of growth
- toxicity [2]: acutely toxic
- toxicity on cells (cells): submicromolar toxicity

Compound: mal-e9-oPLG(Cme)AG-r9-c(cy5)
- time to near complete cleavage off albumin (recombinant MMP-9): less than 4 hours
- reaction with mouse serum albumin or plasma (mouse serum albumin): most of the peptide reacted with MSA or plasma albumin
- tumor uptake (Cy5 fluorescence) [5]: much greater with the cleavable peptide compared to the uncleavable peptide
